# Results from patent US20060024392A1, “Compositions and methods for enhancing the effectiveness of a chemotherapeutic agent” (priority 2004, published 2006).
# “Also recorded” adds a separate entry of the source.
# Test system: HT29 colon cancer cells
# Assay: Sulforhodamine B (SRB) cell growth assay in HT29 colon cancer cells
# Assay type: cell-based
# Protocol: HT-29, a cell line derived from colorectal adenocarcinoma (ATCC, HTB 38), grows in McCoy's 5A medium (Biowhittaker, Inc. Walkersville, Md.). NCM460, a cell line derived from a normal human colon (InCell Corp. San Antonio, Tex.), grows in M3 Base media (InCell Corp. San Antonio, Tex.).
# Both cell lines are kept at 37° C. and 5% CO2 atmosphere. Both media are supplemented with 10% fetal bovine serum (FBS, Biowhittaker, Inc. Walkersville, Md.).
# Cells are fixed in situ by the gentle addition of 50 μl of cold 50% (w/v) TCA (final concentration, 10% TCA) and incubated for 60 minutes at 4° C. The supernatant is discarded, and the plates are washed five times with tap water and air dried. Sulforhodamine B (SRB) solution (100 μl) at 0.4% (w/v) in 1% acetic acid is added to each well, and plates are incubated for 10 minutes at room temperature. After staining, unbound dye is removed by washing five times with 1% acetic acid and the plates are air dried. Bound stain is subsequently solubilized with 100 μl 10 mM trizma base for 5 minutes, and the absorbance at wavelength of 490 nm was spectrophotometrically measured using a microplate reader Elx800 (Bio-Tek instruments, Inc.).
# Cells were seeded in 96-well cluster tissue culture plates (Costar), containing 100 μl complete growth medium per well at densities of 5,000 cells per well. Incubated at 37° C. in a humidified tissue culture incubator. After 24 Hour, 100 μl complete medium containing 5 half-log dilutions of the 5FU from 2*10^−4 to 2*10^−6 M was added into each well (final concentrations are from 10^−4 to 10^−6 M). Six replicates were used for each concentration. Media containing 0.125% DMSO was used as control. After 48 hours of incubation with 5FU in medium, cell proliferation was assessed using the SRB assay.
# Percentage growth (Growth%) is calculated as: [(Ti−Tz)/(C−Tz)]×100 [absorbance measurements at time zero (Tz), control growth (C), and test growth in the presence of drug at the different concentration levels (Ti)].
# Similar to the method used in testing GI50 of 5FU: HT29 was plated at 5000 cells per well. […] After 48 hour treatment, cell growth was assessed using SRB assay.
# The protocol was the same as described above, except cells were exposed to 5FU at concentration ranging from 10^−4 to 10^−6 M with chokeberry ARE at concentration of 1.56, 5, 15.6, 50 μg monomeric anthocyanin/ml growth media.
# The protocol was the similar to Experiment 1: Cells were exposed to half-log diluted SAC at concentration ranging from 3.2 to 1000 μM for 48 hour. Media containing 0.5% filtered water was used as control.
# This experiment was to determine whether the antioxidant, SAC would enhance the effect of 5FU in HT29 cells. The protocol was the same as Experiment 3, except cells were exposed to 5FU at concentration ranging from 10^−4 to 10^−6 M with SAC at concentration of 10, 100, 1000 μM.
# [1] = SAC 3.2 μM, 48 hour, experiment 1
# [2] = SAC 3.2 μM, 48 hour, experiment 2
# [3] = SAC 10 μM, 48 hour, experiment 1
# [4] = SAC 10 μM, 48 hour, experiment 2
# [5] = SAC 32 μM, 48 hour, experiment 1
# [6] = SAC 32 μM, 48 hour, experiment 2
# [7] = SAC 100 μM, 48 hour, experiment 1
# [8] = SAC 100 μM, 48 hour, experiment 2
# [9] = SAC 320 μM, 48 hour, experiment 1
# [10] = SAC 320 μM, 48 hour, experiment 2
# [11] = SAC 1000 μM, 48 hour, experiment 1
# [12] = SAC 1000 μM, 48 hour, experiment 2
# [13] = Table 6 (1): SAC 1000 uM, 5FU 0
# [14] = Table 6 (2): SAC 1000 uM, 5FU 0
smiles,measurement,setting,value
"C=CCSC[C@H](N)C(=O)O [SAC, S-Allyl-cysteine]",enhancement of 5FU toxicity by SAC,"5FU 10^−4 to 10^−6 M with SAC 10, 100, 1000 μM",No significant enhancement; also recorded: did not inhibit HT29 cell growth or enhance 5 FU toxicity
same,Growth %,[1],101.17%
same,OD,[1],0.66
same,Growth %,[2],102.24%
same,OD,[2],0.682
same,Growth %,[3],98.37%
same,OD,[3],0.648
same,Growth %,[4],94.17%
same,OD,[4],0.646
same,Growth %,[5],92.77%
same,OD,[5],0.624
same,Growth %,[6],98.43%
same,OD,[6],0.665
same,Growth %,[7],92.77%
same,OD,[7],0.624
same,Growth %,[8],98.21%
same,OD,[8],0.664
same,Growth %,[9],81.59%
same,OD,[9],0.576
same,Growth %,[10],101.35%
same,OD,[10],0.678
same,Growth %,[11],86.95%
same,OD,[11],0.599
same,Growth %,[12],98.65%
same,OD,[12],0.666
same,inhibition of HT29 cancer cells by SAC,"SAC 3.2 to 1000 μM, 48 hour",did not show significant inhibition; also recorded: did not inhibit HT29 cell growth
same,Growth %,"Table 6 (1): SAC 10 uM, 5FU 0",104.65%
same,OD,"Table 6 (1): SAC 10 uM, 5FU 0",0.341
same,Growth %,"Table 6 (1): SAC 100 uM, 5FU 0",104.19%
same,OD,"Table 6 (1): SAC 100 uM, 5FU 0",0.34
same,Growth %,[13],95.35%
same,OD,[13],0.321
same,Growth %,"Table 6 (2): SAC 10 uM, 5FU 0",92.41%
same,OD,"Table 6 (2): SAC 10 uM, 5FU 0",0.335
same,Growth %,"Table 6 (2): SAC 100 uM, 5FU 0",91.56%
same,OD,"Table 6 (2): SAC 100 uM, 5FU 0",0.333
same,Growth %,[14],74.26%
same,OD,[14],0.292
